Experimental data as given in PMC3466118 (Journal of medicinal chemistry, 2011).

Key:
[1] = system: acetylation of histone H4 in retinoic acid-differentiated SH-SY5Y cells; test: Acetylation of H4 in differentiated SH-SY5Y cells; assay type: cell-based, human; details: 1 μM, also in cells stressed with compound 30
[2] = system: retinoic acid differentiated SH-SY5Y human neuroblastoma cells treated with 30; test: Neuroprotection assay, cells stressed with compound 30; assay type: cell-based; details: for Neuroprotective effect: differentiated SH-SY5Y cells stressed with 100 μM of 30, 24 h, XTT
[3] = system: retinoic acid-differentiated SH-SY5Y neuroblastoma cells; test: Cytotoxicity in unstressed differentiated SH-SY5Y cells; assay type: cell-based, human; details: 0.5–50 μM, 24 h, XTT
[4] = system: HepG2, Hela and SH-SY5Y carcinoma cell lines; test: Antiproliferative activity across the three carcinoma cell lines; assay type: cell-based; details: Homo sapiens, read-out: EC50–48 h, span over the three cell lines
[5] = system: acetylation of p53 in HepG2 cells; test: Western blot, acetylation of p53 in HepG2 cells; assay type: cell-based, human; details: HepG2 total cell extracts
[6] = system: cleavage of caspase 3 in HepG2 cells; test: Western blot, activation/cleavage of caspase 3 in HepG2 cells; assay type: cell-based, human
recombinant human HDAC8 [7] = target: T1, recombinant human HDAC8 (Homo sapiens, UniProt Q9BY41); test: HDAC8 inhibition, fluorescent substrate Fluor de Lys
T1 sequence (Q9BY41 1-377): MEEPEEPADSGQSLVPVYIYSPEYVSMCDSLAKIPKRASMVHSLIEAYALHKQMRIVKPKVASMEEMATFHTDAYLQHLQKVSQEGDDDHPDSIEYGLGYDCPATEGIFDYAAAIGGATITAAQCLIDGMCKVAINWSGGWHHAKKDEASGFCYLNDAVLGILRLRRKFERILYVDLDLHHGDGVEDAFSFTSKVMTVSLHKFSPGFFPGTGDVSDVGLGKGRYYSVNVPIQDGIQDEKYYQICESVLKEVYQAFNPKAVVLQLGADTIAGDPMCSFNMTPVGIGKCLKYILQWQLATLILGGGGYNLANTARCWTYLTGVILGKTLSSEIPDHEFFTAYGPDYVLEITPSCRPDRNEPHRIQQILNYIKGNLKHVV

[8] = target: recombinant human HDAC3/NCoR2 (Homo sapiens, UniProt O15379); test: HDAC3 inhibition, fluorescent substrate Boc-L-Lys
recombinant human HDAC8 [9] = target: T1, recombinant human HDAC8; details: cited from earlier work

recombinant human HDAC3/NCoR2, sequence (O15379 whole entry): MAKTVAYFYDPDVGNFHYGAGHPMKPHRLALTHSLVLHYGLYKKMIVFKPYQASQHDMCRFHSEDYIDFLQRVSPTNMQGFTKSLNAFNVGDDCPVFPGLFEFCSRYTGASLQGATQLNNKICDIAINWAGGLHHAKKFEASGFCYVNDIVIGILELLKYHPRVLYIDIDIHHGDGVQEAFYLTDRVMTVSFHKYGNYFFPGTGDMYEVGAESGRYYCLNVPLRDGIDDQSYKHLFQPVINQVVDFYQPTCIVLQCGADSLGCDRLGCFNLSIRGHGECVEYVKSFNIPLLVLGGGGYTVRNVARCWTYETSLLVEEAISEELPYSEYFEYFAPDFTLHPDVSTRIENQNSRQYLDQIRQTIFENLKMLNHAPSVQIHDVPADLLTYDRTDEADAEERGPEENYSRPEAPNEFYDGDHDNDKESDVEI
recombinant human HDAC3/NCoR2, sequence (Q9Y618 395-489 partner limits assumed): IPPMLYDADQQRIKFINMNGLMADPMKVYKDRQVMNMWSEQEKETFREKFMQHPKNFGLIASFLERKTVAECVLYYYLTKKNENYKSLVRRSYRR

Row | SMILES | Hyperacetylation of histone H4 [1] | Neuroprotective effect [2] | Cytotoxicity to differentiated neuroblastoma cells [3] | EC50 [4] [µM] | other results
1 | [N-]=[N+]=Nc1ccc(-c2cc(C(=O)NCCCCCCC(=O)NO)no2)cc1 [2a, 5-(4-Azidophenyl)isoxazole-3-carboxylic acid(6-hydroxycarbamoylhexyl)amide] | induce hyperacetylation of histone H4 | protect cells from stress induced by compound 30 at low micromolar concentrations | not overly cytotoxic |  | 
2 | [N-]=[N+]=NCc1cc(N=[N+]=[N-])cc(C(=O)Nc2ccc(-c3cc(C(=O)NCCCCCCC(=O)NO)no3)cc2)c1 [2b, 5-[4-(3-Azido-5-azidomethylbenzoylamino)phenyl]isoxazole-3-carboxylic acid (6-hydroxycarbamoylhexyl)amide] | induce hyperacetylation of histone H4 | protect cells from stress induced by compound 30 at low micromolar concentrations |  | 11 to 32 | Acetylation of p53 [5]: neither SAHA nor 2b induced additional time and dose-dependent hyperacetylation of p53; Cleavage of caspase 3 [6]: induced cleavage of caspase 3 by 14 h with maximum activation at 24 h
3 | O=C(CCCCCCC(=O)Nc1cnn(Cc2ccccc2)c1)NO [3a, Octanedioic acid (1-benzyl-1H-pyrazol-4-yl)amide hydroxyamide] |  | non-neuroprotective | not toxic to the cells | 10 to 23 | 
4 | [N-]=[N+]=Nc1ccc(Cn2cc(NC(=O)CCCCCCC(=O)NO)cn2)cc1 [3c, Octanedioic acid [1-(4-azidobenzyl)-1H-pyrazol-4-yl]amide hydroxyamide] |  | non-neuroprotective | not toxic to the cells | 10 to 23 | Fold better potency than 3a, HDAC8 (recombinant human HDAC8 [7]; compared with 3a): 2.7 fold; Fold better potency than 3a, HDAC3 ([8]; compared with 3a): 2.0 fold
5 | [N-]=[N+]=NCc1cc(Cn2cc(NC(=O)CCCCCCC(=O)NO)cn2)cc(N=[N+]=[N-])c1 [3f, Octanedioic acid [1-(3-azido-5-azidomethylbenzyl)-1H-pyrazol-4-yl]amide hydroxyamide] | induce hyperacetylation of histone H4 | protect cells from stress induced by compound 30 at low micromolar concentrations | subtle toxicity at 20 μM | 24 to 36 | Fold more active towards HDAC8 than HDAC3 (selectivity) (recombinant human HDAC8 [7]; HDAC8 vs HDAC3): 8 fold; Cell survival relative to vehicle ([2]; 0.5 and 1 μM, differentiated SH-SY5Y cells stressed with 100 μM of 30): more than doubles the amount of cell survival; IC50 ratio compound/SAHA, HDAC3 [8]: ND ^e 4.74
6 | [N-]=[N+]=NCc1cc(COc2ccc(NC(=O)CCCCCCC(=O)NO)cc2)cc(N=[N+]=[N-])c1 [compound 1] |  |  |  |  | Fold decrease in HDAC8 inhibitory activity compared to SAHA (recombinant human HDAC8 [9]): 17 fold
